Test results taken from PMC9005681, “Use of AD Informer Set compounds to explore validity of novel targets in Alzheimer's disease pathology” (Alzheimer's & Dementia : Translational Research & Clinical …, 2022).
Several values for one entry are separate records, joined by “and”; a condition that tells them apart may be missing. Identical values can stand only once.

Assays:
Test in all cases: PDSP GPCR panel primary binding assays at 10 μM
[1] = biological target: T1, cloned human or rodent CNS receptors, channels, and transporters (PDSP panel) (Homo sapiens, UniProt P18089); settings: primary assay
T1 construct: expressed in transfected cells
T1 sequence (P18089 1-450): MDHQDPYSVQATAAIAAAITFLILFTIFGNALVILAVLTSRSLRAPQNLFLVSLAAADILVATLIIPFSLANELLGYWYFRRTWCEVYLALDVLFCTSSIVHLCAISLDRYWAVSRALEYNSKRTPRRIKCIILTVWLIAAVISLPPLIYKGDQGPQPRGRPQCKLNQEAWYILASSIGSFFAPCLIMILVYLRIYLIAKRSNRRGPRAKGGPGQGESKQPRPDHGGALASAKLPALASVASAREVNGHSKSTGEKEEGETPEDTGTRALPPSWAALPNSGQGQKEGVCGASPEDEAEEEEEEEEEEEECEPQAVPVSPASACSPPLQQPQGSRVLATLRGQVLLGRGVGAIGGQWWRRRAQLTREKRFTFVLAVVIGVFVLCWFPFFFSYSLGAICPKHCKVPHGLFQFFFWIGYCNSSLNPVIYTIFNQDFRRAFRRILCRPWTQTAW
Summary of the method: (§1)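 Secondary binding curves (11 points, triplicate) were run at targets where the 10 μM primary screen, done in quadruplicate, displaced over 50% of radio-labelled standard ligand on average. Primary screening covered 46–47 cloned human or rodent CNS targets; H3, PBR and GABAA were not followed up.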

[2] = biological target: T2, cloned human or rodent CNS receptors, channels, and transporters (PDSP panel) (Homo sapiens, UniProt P35372); settings: primary assay
T2 construct: expressed in transfected cells
Summary of the method: as §1

[3] = biological target: T3, cloned human or rodent CNS receptors, channels, and transporters (PDSP panel) (Homo sapiens, UniProt P25100); settings: primary assay
T3 construct: expressed in transfected cells
T3 sequence (P25100 1-572): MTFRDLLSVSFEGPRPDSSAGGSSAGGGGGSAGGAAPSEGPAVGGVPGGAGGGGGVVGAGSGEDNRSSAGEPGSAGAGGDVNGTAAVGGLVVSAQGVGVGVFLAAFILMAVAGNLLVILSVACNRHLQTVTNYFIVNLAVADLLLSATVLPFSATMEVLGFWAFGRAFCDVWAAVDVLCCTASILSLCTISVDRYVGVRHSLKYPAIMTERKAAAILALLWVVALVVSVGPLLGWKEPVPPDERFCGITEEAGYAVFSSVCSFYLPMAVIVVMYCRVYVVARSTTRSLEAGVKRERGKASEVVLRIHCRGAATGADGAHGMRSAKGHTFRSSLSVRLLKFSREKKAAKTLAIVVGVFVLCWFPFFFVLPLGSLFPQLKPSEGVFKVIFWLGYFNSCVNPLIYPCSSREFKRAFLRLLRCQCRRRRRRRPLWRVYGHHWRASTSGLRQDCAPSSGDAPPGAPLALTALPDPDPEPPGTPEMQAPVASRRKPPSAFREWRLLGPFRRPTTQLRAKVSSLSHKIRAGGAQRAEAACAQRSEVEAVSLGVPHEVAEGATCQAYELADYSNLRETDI
Summary of the method: as §1

[4] = biological target: T4, cloned human or rodent CNS receptors, channels, and transporters (PDSP panel) (Homo sapiens, UniProt P31645); settings: primary assay; for Inhibition 1: replicate 1
T4 construct: expressed in transfected cells
Summary of the method: as §1

[5] = biological target: T5, cloned human or rodent CNS receptors, channels, and transporters (PDSP panel) (Homo sapiens, UniProt P47898); settings: primary assay
T5 construct: expressed in transfected cells
Summary of the method: as §1

[6] = biological target: T6, cloned human or rodent CNS receptors, channels, and transporters (PDSP panel) (Homo sapiens, UniProt P21917); settings: primary assay
T6 construct: expressed in transfected cells
T6 sequence (P21917 1-419): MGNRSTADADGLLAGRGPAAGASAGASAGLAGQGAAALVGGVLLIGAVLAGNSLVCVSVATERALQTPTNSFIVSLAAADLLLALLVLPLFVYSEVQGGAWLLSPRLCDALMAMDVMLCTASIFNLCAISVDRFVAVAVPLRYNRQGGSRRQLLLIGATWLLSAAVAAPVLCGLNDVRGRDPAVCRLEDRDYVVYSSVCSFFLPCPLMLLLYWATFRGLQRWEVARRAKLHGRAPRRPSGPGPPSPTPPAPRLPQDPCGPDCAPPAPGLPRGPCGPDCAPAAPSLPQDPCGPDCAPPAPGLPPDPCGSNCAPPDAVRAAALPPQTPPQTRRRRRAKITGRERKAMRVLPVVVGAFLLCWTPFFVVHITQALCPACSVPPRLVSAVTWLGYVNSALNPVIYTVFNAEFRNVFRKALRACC
Summary of the method: as §1

T2 sequence (P35372 whole entry): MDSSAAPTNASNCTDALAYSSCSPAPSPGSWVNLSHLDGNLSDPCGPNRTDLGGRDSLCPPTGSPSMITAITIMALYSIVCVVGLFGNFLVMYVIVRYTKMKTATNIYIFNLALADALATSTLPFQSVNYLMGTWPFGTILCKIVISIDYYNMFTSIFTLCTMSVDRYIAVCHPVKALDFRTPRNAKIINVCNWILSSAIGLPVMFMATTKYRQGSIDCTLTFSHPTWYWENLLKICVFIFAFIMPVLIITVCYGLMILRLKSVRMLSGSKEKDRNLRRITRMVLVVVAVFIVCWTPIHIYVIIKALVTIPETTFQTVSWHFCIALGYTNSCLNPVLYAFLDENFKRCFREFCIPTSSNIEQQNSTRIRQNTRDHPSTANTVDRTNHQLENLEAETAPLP
T5 sequence (P47898 whole entry): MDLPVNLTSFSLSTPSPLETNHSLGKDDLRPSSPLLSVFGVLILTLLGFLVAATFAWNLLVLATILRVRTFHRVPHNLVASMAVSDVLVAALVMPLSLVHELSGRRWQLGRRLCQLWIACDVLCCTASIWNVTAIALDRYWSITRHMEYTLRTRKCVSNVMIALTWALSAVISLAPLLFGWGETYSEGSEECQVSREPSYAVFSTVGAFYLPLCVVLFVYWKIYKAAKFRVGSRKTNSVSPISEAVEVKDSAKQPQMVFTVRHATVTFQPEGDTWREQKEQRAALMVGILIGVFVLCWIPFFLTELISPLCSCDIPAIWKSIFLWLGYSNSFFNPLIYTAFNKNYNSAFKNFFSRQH
T4 sequence (P31645 whole entry): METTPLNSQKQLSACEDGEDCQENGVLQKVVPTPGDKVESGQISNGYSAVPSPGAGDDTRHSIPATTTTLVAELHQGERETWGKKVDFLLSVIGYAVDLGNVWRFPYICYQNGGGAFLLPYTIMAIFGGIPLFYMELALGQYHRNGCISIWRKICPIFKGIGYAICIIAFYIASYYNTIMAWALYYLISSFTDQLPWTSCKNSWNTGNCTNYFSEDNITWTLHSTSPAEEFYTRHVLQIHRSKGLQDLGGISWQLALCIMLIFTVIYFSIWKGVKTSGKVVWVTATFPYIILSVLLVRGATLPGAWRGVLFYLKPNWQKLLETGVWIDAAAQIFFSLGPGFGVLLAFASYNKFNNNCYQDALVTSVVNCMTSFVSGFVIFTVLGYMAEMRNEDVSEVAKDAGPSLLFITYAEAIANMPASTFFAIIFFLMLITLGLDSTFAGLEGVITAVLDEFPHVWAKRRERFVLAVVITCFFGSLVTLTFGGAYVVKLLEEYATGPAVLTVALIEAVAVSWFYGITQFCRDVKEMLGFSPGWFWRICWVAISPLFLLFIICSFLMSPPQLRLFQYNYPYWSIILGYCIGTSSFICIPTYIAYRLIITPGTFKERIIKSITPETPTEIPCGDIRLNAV

## CCC(=O)N1CCC(NC(=O)Nc2ccc(OC(F)(F)F)cc2)CC1 [UNC10302681A, TPPU]
[1]; Alpha2B, mean inhibition
  Mean %: 6.32%
[1]; Alpha2B, replicate 1
  Inhibition 1: 1.27%
[1]; Alpha2B, replicate 2
  Inhibition 2: 8.98%
[1]; Alpha2B, replicate 3
  Inhibition 3: 5.54%
[1]; Alpha2B, replicate 4
  Inhibition 4: 9.47%
[2]; MOR, mean inhibition
  Mean %: 7.56%
[2]; MOR, replicate 1
  Inhibition 1: 7.83%
[2]; MOR, replicate 2
  Inhibition 2: 3.61%
[2]; MOR, replicate 3
  Inhibition 3: 10.7%
[2]; MOR, replicate 4
  Inhibition 4: 8.11%
[3]; Alpha1D, mean inhibition
  Mean %: -10.94%
[3]; Alpha1D, replicate 1
  Inhibition 1: -5.01%
[3]; Alpha1D, replicate 2
  Inhibition 2: -6%
[3]; Alpha1D, replicate 3
  Inhibition 3: -20.78%
[3]; Alpha1D, replicate 4
  Inhibition 4: -11.97%
[4]; SERT
  Inhibition 1: 16.43% and 21.37%
[4]; SERT, replicate 2
  Inhibition 2: -9.69% and 21.48%
[4]; SERT, replicate 3
  Inhibition 3: 7.05% and 21.19%
[4]; SERT, replicate 4
  Inhibition 4: 4.97% and 21.78%
[5]; 5-HT5A, mean inhibition
  Mean %: -10.71% and -8.22%
[5]; 5-HT5A, replicate 1
  Inhibition 1: 25.37% and 9.24%
[5]; 5-HT5A, replicate 2
  Inhibition 2: -13.71% and -7.98%
[5]; 5-HT5A, replicate 3
  Inhibition 3: -53.57% and -12.99%
[5]; 5-HT5A, replicate 4
  Inhibition 4: -0.94% and -21.14%
[6]; D4, mean inhibition
  Mean %: 5.93%
[6]; D4, replicate 1
  Inhibition 1: 5.07%
[6]; D4, replicate 2
  Inhibition 2: 3.44%
[6]; D4, replicate 3
  Inhibition 3: 0%
[6]; D4, replicate 4
  Inhibition 4: 15.2%

## Cl.NC(=O)c1cnc(N[C@@H]2CCCC[C@@H]2N)nc1Nc1cccc(-n2nccn2)c1 [UNC10302682A, P505-15 (PRT06207 HCl)]
[1]; Receptor Alpha2B, 10 μM
  Inhibition 1: 4.86%
  Inhibition 2: 6.29%
  Inhibition 3: -7.3%
  Inhibition 4: -0.22%
[1]; Receptor Alpha2B, 10 μM, mean of Inhibition 1-4
  Mean %: 0.91%
[2]; Receptor MOR, 10 μM
  Inhibition 1: 27.09%
  Inhibition 2: 20.29%
  Inhibition 3: 17.6%
  Inhibition 4: 20.19%
[2]; Receptor MOR, 10 μM, mean of Inhibition 1-4
  Mean %: 21.29%
[3]; Receptor Alpha1D, 10 μM
  Inhibition 1: 22.56%
  Inhibition 2: 13.18%
  Inhibition 3: 20.43%
  Inhibition 4: 14.74%
[3]; Receptor Alpha1D, 10 μM, mean of Inhibition 1-4
  Mean %: 17.73%
[4]; Receptor SERT, 10 μM
  Inhibition 2: 8.4% and 8.39%
  Inhibition 3: 11.88% and 10.26%
  Inhibition 4: 20.53% and 20.37%
[4]; Receptor SERT, 10 μM, mean of Inhibition 1-4
  Mean %: 14.96% and 10.68%
[5]; Receptor 5-HT5A, 10 μM
  Inhibition 1: -3.51%
  Inhibition 2: -8.26%
  Inhibition 3: 4.4%
  Inhibition 4: 6.38%
[5]; Receptor 5-HT5A, 10 μM, mean of Inhibition 1-4
  Mean %: -0.25%
[6]; Receptor D4, 10 μM
  Inhibition 1: 7.46%
  Inhibition 2: 12.14%
  Inhibition 3: 13.58%
  Inhibition 4: 14.53%
[6]; Receptor D4, 10 μM, mean of Inhibition 1-4
  Mean %: 11.93%

## CC(=O)N1CCC(NC(=O)NC23CC4CC(CC(C4)C2)C3)CC1 [UNC10302683A, AR9281]
[1]; Alpha2B, mean inhibition
  Mean %: 16.32%
[1]; Alpha2B, replicate 1
  Inhibition 1: 9.7%
[1]; Alpha2B, replicate 2
  Inhibition 2: 20.78%
[1]; Alpha2B, replicate 3
  Inhibition 3: 26.1%
[1]; Alpha2B, replicate 4
  Inhibition 4: 8.7%
[2]; MOR, mean inhibition
  Mean %: 5.26%
[2]; MOR, replicate 1
  Inhibition 1: 2.55%
[2]; MOR, replicate 2
  Inhibition 2: 12.43%
[2]; MOR, replicate 3
  Inhibition 3: 4.76%
[2]; MOR, replicate 4
  Inhibition 4: 1.31%
[3]; Alpha1D, mean inhibition
  Mean %: -8.81%
[3]; Alpha1D, replicate 1
  Inhibition 1: 7.07%
[3]; Alpha1D, replicate 2
  Inhibition 2: -12.11%
[3]; Alpha1D, replicate 3
  Inhibition 3: -12.82%
[3]; Alpha1D, replicate 4
  Inhibition 4: -17.37%
[4]; SERT, mean inhibition
  Mean %: -8.86% and -6.55%
[4]; SERT
  Inhibition 1: -9.63% and -17.8%
[4]; SERT, replicate 2
  Inhibition 2: -14.12% and -5.23%
[4]; SERT, replicate 3
  Inhibition 3: -7.44% and -8.27%
[4]; SERT, replicate 4
  Inhibition 4: -4.24% and 5.12%
[5]; 5-HT5A, mean inhibition
  Mean %: -4.79% and -3.44%
[5]; 5-HT5A, replicate 1
  Inhibition 1: 13.38% and 13.31%
[5]; 5-HT5A, replicate 2
  Inhibition 2: 8.95% and -14.87%
[5]; 5-HT5A, replicate 3
  Inhibition 3: -49.4% and -7.36%
[5]; 5-HT5A, replicate 4
  Inhibition 4: 7.91% and -4.85%
[6]; D4, mean inhibition
  Mean %: -0.6%
[6]; D4, replicate 1
  Inhibition 1: 1.15%
[6]; D4, replicate 2
  Inhibition 2: -3.44%
[6]; D4, replicate 3
  Inhibition 3: -3.44%
[6]; D4, replicate 4
  Inhibition 4: 3.35%

## MDL 28170 [UNC10302675A]
[1]; Alpha2B, mean inhibition
  Mean %: 5.87%
[1]; Alpha2B, replicate 1
  Inhibition 1: 22.44%
[1]; Alpha2B, replicate 2
  Inhibition 2: -15.29%
[1]; Alpha2B, replicate 3
  Inhibition 3: -0.28%
[1]; Alpha2B, replicate 4
  Inhibition 4: 16.62%
[2]; MOR, mean inhibition
  Mean %: -2.22%
[2]; MOR, replicate 1
  Inhibition 1: 0.73%
[2]; MOR, replicate 2
  Inhibition 2: -3.1%
[2]; MOR, replicate 3
  Inhibition 3: -4.83%
[2]; MOR, replicate 4
  Inhibition 4: -1.67%
[3]; Alpha1D, mean inhibition
  Mean %: 0.92%
[3]; Alpha1D, replicate 1
  Inhibition 1: 9.77%
[3]; Alpha1D, replicate 2
  Inhibition 2: 7.35%
[3]; Alpha1D, replicate 3
  Inhibition 3: -4.01%
[3]; Alpha1D, replicate 4
  Inhibition 4: -9.41%
[4]; SERT, mean inhibition
  Mean %: -4.02% and -0.38%
[4]; SERT
  Inhibition 1: 19.12% and 14.24%
[4]; SERT, replicate 2
  Inhibition 2: -10.98% and 6.75%
[4]; SERT, replicate 3
  Inhibition 3: -20.47% and -17.68%
[4]; SERT, replicate 4
  Inhibition 4: -3.73% and -4.82%
[5]; 5-HT5A, mean inhibition
  Mean %: -1.67%
[5]; 5-HT5A, replicate 1
  Inhibition 1: -0.61%
[5]; 5-HT5A, replicate 2
  Inhibition 2: -2.73%
[5]; 5-HT5A, replicate 3
  Inhibition 3: -12.06%
[5]; 5-HT5A, replicate 4
  Inhibition 4: 8.72%
[6]; D4, mean inhibition
  Mean %: 0.31%
[6]; D4, replicate 1
  Inhibition 1: 10.14%
[6]; D4, replicate 2
  Inhibition 2: -3.06%
[6]; D4, replicate 3
  Inhibition 3: -7.08%
[6]; D4, replicate 4
  Inhibition 4: 1.24%
